{
  "source": "patent US10822317B2",
  "about": "“Methods and compositions for wound healing” (QBiotics Limited, priority 2013, dated 2020)",
  "assay_type_in_all_cases": "cell-based",
  "key": {"[1]": {"tested_on": "human peripheral blood monocytes", "experiment": "Differentiation of monocytes into macrophages", "conditions": "10-fold dilutions; 4 days; adherence and morphology", "description": "To determine potential effects of Compound 1 and fifteen other epoxy-tigliane compounds in the array on monocyte differentiation, human peripheral blood mononuclear cells (PBMCs) were isolated by Ficoll-Paque sedimentation of heparinised blood from a human donor, and plated at 100,000 cells/well in RPMI-1640 10% FCS. Duplicate wells were treated with 10-fold dilutions of the compounds and incubated at 37° C. for 4 days. The wells were scored visually for cell attachment and morphology, then washed twice with PBS, stained with sulfurhodamine and the incorporate stain quantitated in an ELISA reader. The plates were then washed with water and stained with 1% crystal violet in methanol for photography and scoring of adherent cell morphology."}, "[2]": {"tested_on": "human peripheral blood mononuclear cells (PBMCs)", "experiment": "Cytokine production by PBMCs (Cytometric Bead Array)", "conditions": "24 hr, ± standard deviation", "from_the_text": "Specific cytokines play critical roles in wound healing processes, and agents that modulate these substances may be useful in treating wounds and/or improving the cosmetic outcomes of healing (e.g. reduced scarring). The effects of Compounds 1, 2, 5 and 42 on regulation of four cytokines (IL-1β, IL-6, IL-8 and TNFα) known to be critical in early stages of the wound healing process were investigated in human peripheral blood mononuclear cells (PBMCs).\nPBMCs were isolated by Ficoll-Paque sedimentation of heparinised blood acquired from both a person (Donor 1) and (Donor 2) human donor. All cells were cultured in 10% FCS, RPMI as detailed previously.\nPBMCs were seeded at a density of 1.5×10^5 cells per well in 10% FCS, RPMI. Stimulation of these cells with the four compounds was performed at four concentrations (0 ng/mL, 3 ng/mL, 30 ng/mL, 300 ng/mL) in duplicate for 24 h in a humidified incubator at 37° C., 5% CO2. Media samples were taken from each of the required wells and frozen at −80° C. until use.\nCytometric Bead Array (CBA) assays were used to measure the results. CBA assays provide a method for capturing a soluble analyte or set of analytes using antibody coated beads of known sizes and fluorescence. Detection is then performed using another fluorescently labelled secondary antibody to form a sandwich complex. Each media sample was assayed for the presence of soluble […], IL-6, IL-8, IL-10, IL-12p70 and TNFα using a BD (Becton Dickinson) CBA Human Inflammatory Cytokine Detection Kit according to manufacturers' instructions. Mean fluorescence intensity values from each sample were compared against a standard curve to determine cytokine concentrations (pg/mL)."}, "[3]": {"tested_on": "human neonatal fibroblasts", "experiment": "Scratch closure, human neonatal fibroblasts, Method 3 (IncuCyte)", "description": "(§1) The ability of early. passage neonatal foreskin fibroblasts (NFF) cultured in RPMI 1640-10% foetal calf serum to migrate across a scratch wound made in a confluent monolayer following treatment with purified compounds or plant extracts was determined using one or more of the following three methods.\nCells were seeded and treated in 96-well plates as in Method 2 (5 replicate wells per dilution), except that the scratches were made in one action with a tool having 96, 1 mm thick teflon coated pins (Essen Bioscience Woundmaker). The plate was then placed in a 37° C., 5% CO2 humidified atmosphere in an IncuCyte FLR instrument programmed to photograph each well under phase contrast at 3 hr intervals for 42 hours. The software determined the initial scratch boundaries and their rate of closure. Accelerated wound closure was considered to be significant if the initial rate of closure was >10% of the untreated controls."}, "[4]": {"tested_on": "human neonatal fibroblasts", "experiment": "Scratch closure, human neonatal fibroblasts, Method 2", "conditions": "200 ng/mL", "description": "as §1\nCells were seeded in 6 mm wells (96-well plates) or 16 mm (24-well plates), with 2 to 6 replicate wells/dilution, and treated as in Method 1. Immediately after treatment, the scratch edges were outlined on the underside of the well with a fine point felt pen. After fixing and staining, migration was assessed under the microscope with the aid of a graticule, scoring migration as 0, 25, 50, 75 or 100% (total closure) of the initial width. Accelerated wound closure was considered to be significant if mean quartile of replicates was […] that of untreated controls (p<0.05, t-test). In addition, “wound” areas were created by seeding cells in the presence of 3 mm stainless steel pins (96-well plate), or by inserting flat-edged Teflon rings. These devices were removed after overnight incubation of the NFF cells."}},
  "data": [
    {"compound": "CCC(C)C(=O)OC1C(C)C2(O)C(C3OC3(CO)C(O)C3(O)C(=O)C(C)=CC32)C2C(C)(C)C12OC(=O)C(C)CC", "note": "(stereo not drawn) [Compound 2, 12,13-di-(2-methylbutanoyl)-6,7-epoxy-4,5,9,12,13,20-hexahydroxy-1-tigliaen-3-one]", "values": [
      {"measurement": "Differentiation endpoint (endpoint concentration in dilution series for induction of macrophage phenotype)", "setting": "[1]", "value": 1, "unit": "ng/mL"},
      {"measurement": "IL-1β level", "setting": "[2]; Donor 1, 3 ng/mL", "value": "1.4 ± 1.2", "unit": "pg/mL"},
      {"measurement": "IL-6 level", "setting": "[2]; Donor 1, 3 ng/mL", "value": "9.1 ± 0.2", "unit": "pg/mL"},
      {"measurement": "IL-8 level", "setting": "[2]; Donor 1, 3 ng/mL", "value": "2099 ± 585", "unit": "pg/mL"},
      {"measurement": "TNFα level", "setting": "[2]; Donor 1, 3 ng/mL", "value": "31.15 ± 6.9", "unit": "pg/mL"},
      {"measurement": "IL-1β level", "setting": "[2]; Donor 1, 30 ng/mL", "value": "1.21 ± 0.4", "unit": "pg/mL"},
      {"measurement": "IL-6 level", "setting": "[2]; Donor 1, 30 ng/mL", "value": "38 ± 3.9", "unit": "pg/mL"},
      {"measurement": "IL-8 level", "setting": "[2]; Donor 1, 30 ng/mL", "value": "18229 ± 2592", "unit": "pg/mL"},
      {"measurement": "TNFα level", "setting": "[2]; Donor 1, 30 ng/mL", "value": "314.07 ± 37.9", "unit": "pg/mL"},
      {"measurement": "IL-1β level", "setting": "[2]; Donor 1, 300 ng/mL", "value": "37.7 ± 4.6", "unit": "pg/mL"},
      {"measurement": "IL-6 level", "setting": "[2]; Donor 1, 300 ng/mL", "value": "84.1 ± 3.6", "unit": "pg/mL"},
      {"measurement": "IL-8 level", "setting": "[2]; Donor 1, 300 ng/mL", "value": "16634 ± 625", "unit": "pg/mL"},
      {"measurement": "TNFα level", "setting": "[2]; Donor 1, 300 ng/mL", "value": "330.0 ± 28.7", "unit": "pg/mL"},
      {"measurement": "IL-1β level", "setting": "[2]; Donor 2, 3 ng/mL", "value": "6.7 ± 1.5", "unit": "pg/mL"},
      {"measurement": "IL-6 level", "setting": "[2]; Donor 2, 3 ng/mL", "value": "14.9 ± 1.1", "unit": "pg/mL"},
      {"measurement": "IL-8 level", "setting": "[2]; Donor 2, 3 ng/mL", "value": "2608 ± 309", "unit": "pg/mL"},
      {"measurement": "TNFα level", "setting": "[2]; Donor 2, 3 ng/mL", "value": "27.3 ± 8.3", "unit": "pg/mL"},
      {"measurement": "IL-1β level", "setting": "[2]; Donor 2, 30 ng/mL", "value": "52.6 ± 5.0", "unit": "pg/mL"},
      {"measurement": "IL-6 level", "setting": "[2]; Donor 2, 30 ng/mL", "value": "14.5 ± 3.3", "unit": "pg/mL"},
      {"measurement": "IL-8 level", "setting": "[2]; Donor 2, 30 ng/mL", "value": "26401 ± 271", "unit": "pg/mL"},
      {"measurement": "TNFα level", "setting": "[2]; Donor 2, 30 ng/mL", "value": "211.5 ± 12.4", "unit": "pg/mL"},
      {"measurement": "IL-1β level", "setting": "[2]; Donor 2, 300 ng/mL", "value": "123.9 ± 1.0", "unit": "pg/mL"},
      {"measurement": "IL-6 level", "setting": "[2]; Donor 2, 300 ng/mL", "value": "41.4 ± 2.3", "unit": "pg/mL"},
      {"measurement": "IL-8 level", "setting": "[2]; Donor 2, 300 ng/mL", "value": "34117 ± 630", "unit": "pg/mL"},
      {"measurement": "TNFα level", "setting": "[2]; Donor 2, 300 ng/mL", "value": "618.1 ± 63.7", "unit": "pg/mL"},
      {"measurement": "% closure compared to control", "setting": "[3]; 30 ng/mL", "value": 147, "unit": "%"}
    ]},
    {"compound": "CC=C(C)C(=O)OC1C(C)C2(O)C(C3OC3(CO)C(O)C3(O)C(=O)C(C)=CC32)C2C(C)(C)C12OC(=O)C(C)CC", "note": "(stereo not drawn) [Compound 1, 12-tigloyl-13-(2-methylbutanoyl)-6,7-epoxy-4,5,9,12,13,20-hexahydroxy-1-tigliaen-3-one]", "values": [
      {"measurement": "% closure compared to control", "setting": "[4]", "value": 180, "unit": "%"},
      {"measurement": "Differentiation endpoint (endpoint concentration in dilution series for induction of macrophage phenotype)", "setting": "[1]", "value": 1, "unit": "ng/mL"},
      {"measurement": "IL-1β level", "setting": "[2]; Donor 1, 3 ng/mL", "value": "1.2 ± 0.2", "unit": "pg/mL"},
      {"measurement": "IL-6 level", "setting": "[2]; Donor 1, 3 ng/mL", "value": "9.7 ± 1.2", "unit": "pg/mL"},
      {"measurement": "IL-8 level", "setting": "[2]; Donor 1, 3 ng/mL", "value": "1720 ± 157", "unit": "pg/mL"},
      {"measurement": "TNFα level", "setting": "[2]; Donor 1, 3 ng/mL", "value": "24.3 ± 1.4", "unit": "pg/mL"},
      {"measurement": "IL-1β level", "setting": "[2]; Donor 1, 30 ng/mL", "value": "11.9 ± 0.8", "unit": "pg/mL"},
      {"measurement": "IL-6 level", "setting": "[2]; Donor 1, 30 ng/mL", "value": "34.2 ± 1.1", "unit": "pg/mL"},
      {"measurement": "IL-8 level", "setting": "[2]; Donor 1, 30 ng/mL", "value": "16920 ± 1198", "unit": "pg/mL"},
      {"measurement": "TNFα level", "setting": "[2]; Donor 1, 30 ng/mL", "value": "324.4 ± 0.0", "unit": "pg/mL"},
      {"measurement": "IL-1β level", "setting": "[2]; Donor 1, 300 ng/mL", "value": "39 ± 0.2", "unit": "pg/mL"},
      {"measurement": "IL-6 level", "setting": "[2]; Donor 1, 300 ng/mL", "value": "89.5 ± 13.8", "unit": "pg/mL"},
      {"measurement": "IL-8 level", "setting": "[2]; Donor 1, 300 ng/mL", "value": "16419 ± 40", "unit": "pg/mL"},
      {"measurement": "TNFα level", "setting": "[2]; Donor 1, 300 ng/mL", "value": "355.0 ± 4.3", "unit": "pg/mL"},
      {"measurement": "IL-1β level", "setting": "[2]; Donor 2, 3 ng/mL", "value": "3.1 ± 0.9", "unit": "pg/mL"},
      {"measurement": "IL-6 level", "setting": "[2]; Donor 2, 3 ng/mL", "value": "8.3 ± 0.4", "unit": "pg/mL"},
      {"measurement": "IL-8 level", "setting": "[2]; Donor 2, 3 ng/mL", "value": "1493 ± 2", "unit": "pg/mL"},
      {"measurement": "TNFα level", "setting": "[2]; Donor 2, 3 ng/mL", "value": "11.2 ± 0.3", "unit": "pg/mL"},
      {"measurement": "IL-1β level", "setting": "[2]; Donor 2, 30 ng/mL", "value": "43.9 ± 1.7", "unit": "pg/mL"},
      {"measurement": "IL-6 level", "setting": "[2]; Donor 2, 30 ng/mL", "value": "12.6 ± 0.9", "unit": "pg/mL"},
      {"measurement": "IL-8 level", "setting": "[2]; Donor 2, 30 ng/mL", "value": "24078 ± 815", "unit": "pg/mL"},
      {"measurement": "TNFα level", "setting": "[2]; Donor 2, 30 ng/mL", "value": "209.6 ± 7.5", "unit": "pg/mL"},
      {"measurement": "IL-1β level", "setting": "[2]; Donor 2, 300 ng/mL", "value": "121.6 ± 5.6", "unit": "pg/mL"},
      {"measurement": "IL-6 level", "setting": "[2]; Donor 2, 300 ng/mL", "value": "38.8 ± 9.0", "unit": "pg/mL"},
      {"measurement": "IL-8 level", "setting": "[2]; Donor 2, 300 ng/mL", "value": "32021 ± 1156", "unit": "pg/mL"},
      {"measurement": "TNFα level", "setting": "[2]; Donor 2, 300 ng/mL", "value": "592.2 ± 24.7", "unit": "pg/mL"},
      {"measurement": "% closure compared to control", "setting": "[3]; 30 ng/mL", "value": 150, "unit": "%"},
      {"measurement": "% closure compared to control", "setting": "[3]; 100 ng/mL", "value": 160, "unit": "%"}
    ]}
  ]
}
